# Values joined by “and” are separate entries in the source; they are usually repeats but may differ in a detail not shown here. Identical values can stand only once.
# Experiments:
# [1] = Salmon calcitonin/PTS893 monkey study: in vivo examinations (mortality, food consumption, clinical observations, body weight); parameters: species or system cynomolgus monkeys (Macaca fascicularis)
# Description: Solvent was used as vehicle for the control group.
# The animals used in this analysis were cynomolgus monkeys (Macaca fascicularis), supplied by Centre de Recherches Primatologiques, Port Louis, Mauritius. Two animals were used per group and sex. […] Animals were examined daily for mortality, food consumption and clinical observations. Body weight was recorded once per week.
# In vivo examinations. No significant histopathological changes were observed.
# [2] = Salmon calcitonin/PTS893 monkey study: histopathology incl. osteonectin, osteopontin and osteocalcin staining of bone; assay type: in vivo, cynomolgus monkeys (Macaca fascicularis); details: females
# Description: Animals were killed by deep anaesthesia induced by intravenous injection of Pentothal®, followed by exsanguinations. All relevant tissues were sampled for histopathology and gene expression profiling. The following tissue samples were processed for analysis: liver, kidney, pituitary, muscle, bone, duodenum, spleen and trachea. Samples for histopathology were fixed in phosphate-buffered 10% formalin. Bone demineralization was performed with 10% formic acid. Tissue samples were embedded in Paraplast® and sectioned at 4 microns, for staining with haematoxylin and eosin. […] All selected tissues for gene expression profiling were examined histopathologically.
# Bone sections were stained for osteonectin, osteopontin and osteocalcin and were evaluated histopathologically. Histomorphometry of the bone tissue was performed regarding parameters for bone resorption and synthesis (osteoid formation).
# [3] = Salmon calcitonin/PTS893 monkey study: urinalysis; details: urine
# [4] = Salmon calcitonin/PTS893 monkey study: haematology; assay type: in vivo, cynomolgus monkeys (Macaca fascicularis);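 also: haematology parameters were measured in blood collected from a peripheral vein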
# Description: Animals were fasted overnight before blood collection but had free access to water. Blood samples were taken from a peripheral vein. Standard haematology and clinical chemistry analysis were performed once during pretest and at the end of the treatment period. Blood samples were collected from each animal at the same intervals as described for the clinical chemistry investigations. The serum samples were deep-frozen (approximately −80° C.) until analyses for hormone determination.
# [5] = female monkeys, day 13 of dosing
# [6] = female monkeys, day −8 relative to start of dosing
# [7] = male monkeys, day −6 relative to start of dosing
compound,measurement,setting,value
CC(C)C[C@H](NC(=O)[C@H](CCCCN)NC(=O)CNC(=O)[C@H](CC(C)C)NC(=O)[C@@H](NC(=O)[C@@H]1CSSC[C@H](N)C(=O)N[C@@H](CO)C(=O)N[C@@H](CC(N)=O)C(=O)N[C@@H](CC(C)C)C(=O)N[C@@H](CO)C(=O)N[C@@H]([C@@H](C)O)C(=O)N1)C(C)C)C(=O)N[C@@H](CO)C(=O)N[C@@H](CCC(N)=O)C(=O)N[C@@H](CCC(=O)O)C(=O)N[C@@H](CC(C)C)C(=O)N[C@@H](Cc1c[nH]cn1)C(=O)N[C@@H](CCCCN)C(=O)N[C@@H](CC(C)C)C(=O)N[C@@H](CCC(N)=O)C(=O)N[C@H](C(=O)N[C@@H](Cc1ccc(O)cc1)C(=O)N1CCC[C@H]1C(=O)N[C@@H](CCCNC(=N)N)C(=O)N[C@H](C(=O)N[C@@H](CC(N)=O)C(=O)N[C@H](C(=O)NCC(=O)N[C@@H](CO)C(=O)NCC(=O)N[C@H](C(=O)N1CCC[C@H]1C(N)=O)[C@@H](C)O)[C@@H](C)O)[C@@H](C)O)[C@@H](C)O [salmon calcitonin],Food consumption,"[1]; 50 μg/animal/day sc, two weeks",decrease
same,Signs of toxicity,"[1]; 50 μg/animal/day sc, two weeks",no signs of toxicity
same,"Food Consumption, Avg., Both animals","[1]; males, average of both animals of the group",72.9
same,"Food Consumption, Avg.","[1]; males, average per individual animal",70.8 and 75.0
same,"Food Consumption, Day 1","[1]; males, day 1 of SC dosing, individual animals",75 and 50
same,"Food Consumption, Day 2","[1]; males, day 2 of SC dosing, individual animals",25
same,"Food Consumption, Day 3","[1]; males, day 3 of SC dosing, individual animals",50 and 100
same,"Food Consumption, Day 4","[1]; males, day 4 of SC dosing, individual animals",100 and 75
same,"Food Consumption, Day 5","[1]; males, day 5 of SC dosing, individual animals",100
same,"Food Consumption, Day 6","[1]; males, day 6 of SC dosing, individual animals",75
same,"Food Consumption, Day 7","[1]; males, day 7 of SC dosing, individual animals",100 and 75
same,"Food Consumption, Day 8","[1]; males, day 8 of SC dosing, individual animals",100 and 75
same,"Food Consumption, Day 9","[1]; males, day 9 of SC dosing, individual animals",100
same,"Food Consumption, Day 10","[1]; males, day 10 of SC dosing, individual animals",100
same,"Food Consumption, Day 11","[1]; males, day 11 of SC dosing, individual animals",75 and 100
same,"Food Consumption, Day 12","[1]; males, day 12 of SC dosing, individual animals",75
same,"Food Consumption, Day 13","[1]; males, day 13 of SC dosing, individual animals",25
same,"Food Consumption, Day 14","[1]; males, day 14 of SC dosing, individual animals",75
same,"Food Consumption, Day −1","[1]; males, day −1 (before dosing), individual animals",75
same,"Food Consumption, Day −2","[1]; males, day −2 (before dosing), individual animals",100
same,"Food Consumption, Day −3","[1]; males, day −3 (before dosing), individual animals",75
same,"Food Consumption, Day −4","[1]; males, day −4 (before dosing), individual animals",50 and 75
same,"Food Consumption, Day −5","[1]; males, day −5 (before dosing), individual animals",75
same,"Food Consumption, Day −6","[1]; males, day −6 (before dosing), individual animals",50
same,Inflammatory and regenerative changes in the kidneys,[2],slightly higher incidence
same,CREAT,[3]; [5],4800 µmol/L and 4200 µmol/L
same,Ca2+,[3]; [5],17.55 mmol/L and 12.70 mmol/L
same,Cl−,[3]; [5],63 mmol/L and 65 mmol/L
same,I.PHOS,[3]; [5],5.1 mmol/L and 5.8 mmol/L
same,K+,[3]; [5],53 mmol/L and 57 mmol/L
same,Mg2+,[3]; [5],5.40 mmol/L and 4.85 mmol/L
same,NAG,[3]; [5],2.8 IU/l and 2.7 IU/l
same,Na+,[3]; [5],40 mmol/L and 32 mmol/L
same,VOLUME,[3]; [5],67 mL and 49 mL
same,CREAT,"[3]; female monkeys, day −7 relative to start of dosing",6920 µmol/L and 13380 µmol/L
same,CREAT,[3]; [6],10780 µmol/L and 11260 µmol/L
same,Ca2+,[3]; [6],3.00 mmol/L and 3.50 mmol/L
same,K+,[3]; [6],104 mmol/L and 172 mmol/L
same,Mg2+,[3]; [6],3.35 mmol/L and 3.80 mmol/L
same,Na+,[3]; [6],98 mmol/L and 156 mmol/L
same,CREAT,"[3]; male monkeys, day 13 of dosing",4620 µmol/L and 4400 µmol/L
same,Ca2+,"[3]; male monkeys, day 13 of dosing",18.25 mmol/L and 23.40 mmol/L
same,Cl−,"[3]; male monkeys, day 13 of dosing",55 mmol/L and 68 mmol/L
same,I.PHOS,"[3]; male monkeys, day 13 of dosing",2.50 mmol/L and 3.00 mmol/L
same,K+,"[3]; male monkeys, day 13 of dosing",78 mmol/L and 76 mmol/L
same,Mg2+,"[3]; male monkeys, day 13 of dosing",7.05 mmol/L and 9.80 mmol/L
same,Na+,"[3]; male monkeys, day 13 of dosing",14 mmol/L and 15 mmol/L
same,VOLUME,"[3]; male monkeys, day 13 of dosing",68 mL and 54 mL
same,I.PHOS,[3]; [7],4.35 mmol/L and 5.33 mmol/L
same,LDH,[3]; [7],9.0 IU/L and 13.0 IU/L
same,NAG,[3]; [7],2.7 IU/l and 4.2 IU/l
same,VOLUME,[3]; [7],62 mL and 37 mL
same,Haematology L,"[4]; females, d7",4.61 pg/ml and 6.21 pg/ml
same,Haematology M,"[4]; females, d7",0.63 nmol/l and 0.82 nmol/l
same,Haematology MCH,"[4]; females, d7",18.6 ng/ml and 19.4 ng/ml
same,Haematology MCHC,"[4]; females, d7",29.0 pg/ml and 28.7 pg/ml
same,Haematology PCV,"[4]; females, d7",0.40 mU/l and 0.44 mU/l
same,Haematology PLAT,"[4]; females, d7",594 nmol/l and 356 nmol/l
same,Haematology RBC,"[4]; females, d7",6.2 nmol/l and 6.6 nmol/l
same,Haematology M,"[4]; females, d13",0.69 nmol/l and 0.39 nmol/l
same,Haematology MCH,"[4]; females, d13",19.5 ng/ml
same,Haematology MCHC,"[4]; females, d13",30.3 pg/ml and 29.9 pg/ml
same,Haematology N,"[4]; females, d13",5.41 nmol/l and 6.16 nmol/l
same,Haematology PCV,"[4]; females, d13",0.33 mU/l and 0.37 mU/l
same,Haematology PLAT,"[4]; females, d13",451 nmol/l and 229 nmol/l
same,Haematology RBC,"[4]; females, d13",5.2 nmol/l and 5.7 nmol/l
same,Haematology E,"[4]; females, d−8 (before dosing)",0.03 mUI/l
same,Haematology L,"[4]; females, d−8 (before dosing)",3.26 pg/ml and 4.79 pg/ml
same,Haematology M,"[4]; females, d−8 (before dosing)",0.25 nmol/l and 0.30 nmol/l
same,Haematology MCH,"[4]; females, d−8 (before dosing)",19.1 ng/ml and 19.8 ng/ml
same,Haematology MCHC,"[4]; females, d−8 (before dosing)",31.2 pg/ml and 30.6 pg/ml
same,Haematology N,"[4]; females, d−8 (before dosing)",3.45 nmol/l and 3.13 nmol/l
same,Haematology PCV,"[4]; females, d−8 (before dosing)",0.40 mU/l and 0.45 mU/l
same,Haematology PLAT,"[4]; females, d−8 (before dosing)",549 nmol/l and 304 nmol/l
same,Haematology RBC,"[4]; females, d−8 (before dosing)",6.5 nmol/l and 7.0 nmol/l
same,Haematology B,"[4]; males, d7",0.04 G/l
same,Haematology E,"[4]; males, d7",0.10 G/l and 0.09 G/l
same,Haematology HB,"[4]; males, d7",11.7 g/dl and 11.5 g/dl
same,Haematology L,"[4]; males, d7",6.79 G/l and 5.57 G/l
same,Haematology M,"[4]; males, d7",0.73 G/l and 0.45 G/l
same,Haematology MCH,"[4]; males, d7",19.9 pg and 19.2 pg
same,Haematology MCHC,"[4]; males, d7",30.3 g/dl and 31.3 g/dl
same,Haematology MCV,"[4]; males, d7",66 fl and 62 fl
same,Haematology N,"[4]; males, d7",4.11 G/l and 3.31 G/l
same,Haematology PCV,"[4]; males, d7",0.39 l/l and 0.37 l/l
same,Haematology PLAT,"[4]; males, d7",396 G/l and 330 G/l
same,Haematology RBC,"[4]; males, d7",5.9 T/l and 6.0 T/l
same,Haematology WBC,"[4]; males, d7",11.8 G/l and 9.5 G/l
same,Haematology B,"[4]; males, d13",0.03 G/l
same,Haematology HB,"[4]; males, d13",11.2 g/dl and 10.3 g/dl
same,Haematology L,"[4]; males, d13",5.38 G/l and 4.92 G/l
same,Haematology M,"[4]; males, d13",0.57 G/l and 0.76 G/l
same,Haematology MCH,"[4]; males, d13",20.2 pg and 19.2 pg
same,Haematology MCHC,"[4]; males, d13",29.0 g/dl and 28.7 g/dl
same,Haematology MCV,"[4]; males, d13",70 fl and 67 fl
same,Haematology N,"[4]; males, d13",1.90 G/l and 3.04 G/l
same,Haematology PCV,"[4]; males, d13",0.39 l/l and 0.36 l/l
same,Haematology PLAT,"[4]; males, d13",302 G/l and 389 G/l
same,Haematology RBC,"[4]; males, d13",5.6 T/l and 5.4 T/l
same,Haematology WBC,"[4]; males, d13",8.0 G/l and 8.8 G/l
same,Haematology HB,"[4]; males, d−6 (before dosing)",12.6 g/dl and 13.6 g/dl
same,Haematology L,"[4]; males, d−6 (before dosing)",4.00 G/l and 6.55 G/l
same,Haematology MCH,"[4]; males, d−6 (before dosing)",20.2 pg and 19.7 pg
same,Haematology MCHC,"[4]; males, d−6 (before dosing)",31.4 g/dl and 32.0 g/dl
same,Haematology MCV,"[4]; males, d−6 (before dosing)",64 fl and 62 fl
same,Haematology N,"[4]; males, d−6 (before dosing)",3.36 G/l and 3.93 G/l
same,Haematology PCV,"[4]; males, d−6 (before dosing)",0.40 l/l and 0.43 l/l
same,Haematology PLAT,"[4]; males, d−6 (before dosing)",351 G/l and 247 G/l
same,Haematology RBC,"[4]; males, d−6 (before dosing)",6.3 T/l and 6.9 T/l
same,Haematology WBC,"[4]; males, d−6 (before dosing)",7.7 G/l and 11.5 G/l
